We go through 6 compounds from US5235061A, “Fungicidal (1H-1,2,4-triazolyl)disilaalkanes” (priority 1991, dated 1993).

What all share (assay): In vitro percent disease control (radii of spore growth on agar)
Common to all, as to assay type: cell-based

One data set has as its system Physalospora baccae. Particulars: for inhibition of growth at 50 ppm / inhibition of growth at 100 ppm: read-out: % controlled, Phy ba. The method in brief:
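Compounds at 100 and 50 ppm (10% acetone) mixed into potato-sucrose-agar, fungus spotted centrally and grown several days in a growth room. Percent disease control derived from radii of spore growth.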

For a further data set, the system named is Pyricalaria oryzae. Particulars: for inhibition of growth at 50 ppm: read-out: % controlled, Py. or., 50 ppm; for inhibition of growth at 100 ppm: read-out: % controlled, Py. or., 100 ppm. The method in brief: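 Compounds at 100 ppm and 50 ppm (10% acetone in water) mixed into potato-sucrose-agar, P. oryzae spotted centrally and incubated several days. Percent disease control derived from radii of spore growth.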

In a further data set the test system is Fusarium moniliforme. The gist of the method:
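Compounds in 10% acetone/water at 100 and 50 ppm were mixed into potato-sucrose-agar, with Fusarium moniliforme spotted centrally. After several days' incubation, percent disease control was derived from radii of spore growth.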

The subject of the next data set is Phytophthora capsisi. Particulars: for inhibition of growth at 50 ppm / inhibition of growth at 100 ppm: Phytophthora, read-out: % controlled, Phy ca. The gist of the method:
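Compounds dissolved in acetone (10% of final volume) then water at 100 ppm and 50 ppm, mixed into potato-sucrose-agar; fungus spotted at plate centre and incubated several days. Percent disease control derived from radii of spore growth.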

The test system of a further data set is Rhizoctonia solani. The note with it: for inhibition of growth at 50 ppm / inhibition of growth at 100 ppm: Rhizoctonia solani, read-out: % controlled, Rhy. so. The gist of the method: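 Test compounds at 100 ppm and 50 ppm (acetone 10% of final volume, then water) were mixed into potato-sucrose-agar, and the fungus was spotted at the dish centre. Dishes were incubated several days in a growth room. Percent disease control was derived from the radii of spore growth.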

A further data set relates to Alternaria mali. The note with it: for inhibition of growth at 50 ppm / inhibition of growth at 100 ppm: Alternaria mali, read-out: % controlled, Al. The method in brief:
(§1)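 Compounds in acetone (10% of final volume) diluted with water to 100 and 50 ppm, then mixed into potato-sucrose-agar with each fungus spotted centrally. Incubated several days in a growth room; percent disease control derived from radii of spore growth.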

In the next data set the test system is Rhizopus sp. The note with it: for inhibition of growth at 50 ppm / inhibition of growth at 100 ppm: Rhizopus, read-out: % controlled, Rhi. sp. The method in brief:
as §1

The subject of the next data set is Botry tris cinerea. Particulars: for inhibition of growth at 50 ppm / inhibition of growth at 100 ppm: read-out: % controlled, Bo ci. The gist of the method:
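Compounds at 100 and 50 ppm (acetone 10% of final volume, rest water) mixed into potato-sucrose agar; Botrytis cinerea spotted at dish centre. After several days' incubation, percent disease control calculated from radii of spore growth.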

The test system of a further data set is Glomerella cingulata. The note with it: for inhibition of growth at 50 ppm / inhibition of growth at 100 ppm: Colletotrichum gloeosporioides, read-out: % controlled, Glo. The gist of the method:
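Compounds were dissolved in acetone (10% of final volume) plus water at 100 ppm and 50 ppm and mixed into potato-sucrose agar. G. cingulata was spotted centrally and incubated for several days in a growth room. Percent disease control was derived from the radii of spore growth.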

For data set [1], the system named is Botryosphaeria dothidea Macrophoma sp. The note with it: for inhibition of growth at 50 ppm / inhibition of growth at 100 ppm: Botryosphaeria dothidea, read-out: % controlled, Bo.do (Ma.). The method in brief: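 Compounds (100 and 50 ppm, 10% acetone in water) were mixed into potato-sucrose-agar and the fungus was spotted centrally, then incubated several days in a growth room. Percent disease control came from radii of spore growth.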

With `C=CC[Si](C)(Cn1cncn1)C[Si](CC=C)(CC=C)CC=C` (stereo not drawn) [4-methyl-6-bis(2-propenyl)-4,6-disila-4-(1H-1,2,4-triazol-1-ylmethyl)-1,8-nonadiene], the inhibition of growth at 50 ppm with Physalospora baccae (50 ppm) was determined as 80%; in the data set with Pyricalaria oryzae, 100%; in the data set on Phytophthora capsisi (50 ppm), 45%; with Rhizoctonia solani (50 ppm) it was 96%; with Alternaria mali (50 ppm) it was 75%; with Rhizopus sp. (50 ppm), 60%. In addition, the inhibition of growth at 50 ppm worked out at 60% with Botry tris cinerea (50 ppm), 82% in the data set on Glomerella cingulata (50 ppm) and 70% in [1] (50 ppm). The inhibition of growth at 100 ppm with Physalospora baccae (100 ppm) came to 85%; in the data set on Pyricalaria oryzae it was 100%; in the data set with Phytophthora capsisi (100 ppm), 50%; with Rhizoctonia solani (100 ppm), 96%; in the data set with Alternaria mali (100 ppm), 95%; with Rhizopus sp. (100 ppm), 80%. Further, the inhibition of growth at 100 ppm in the data set with Botry tris cinerea (100 ppm) is 80%; in the data set with Glomerella cingulata (100 ppm), 87%; in data set [1] (100 ppm) it was 75%. Besides, the “% controlled, Fu. mo.” value in the data set with Fusarium moniliforme (50 ppm) came to 46%; with Fusarium moniliforme (100 ppm), 65%.

On to `C=CC[Si](C)(Cn1cncn1)C[Si](CC=C)(c1ccccc1)c1ccc(-c2ccccc2)cc1` (stereo not drawn) [4-methyl-6-phenyl-6-(4-phenylphenyl)-4,6-disila-4-(1H-1,2,4-triazol-1-ylmethyl)-1,8-nonadiene], for which the inhibition of growth at 50 ppm with Physalospora baccae (50 ppm) was 84%; in the data set on Pyricalaria oryzae it was 100%; in the data set with Phytophthora capsisi (50 ppm), 38%; in the data set with Rhizoctonia solani (50 ppm) it was 80%; with Alternaria mali (50 ppm) it was 72%; in the data set on Rhizopus sp. (50 ppm), 40%. The values for the inhibition of growth at 50 ppm (in the data set on Botry tris cinerea (50 ppm); in the data set with Glomerella cingulata (50 ppm); in data set [1] (50 ppm)) were 77%, 100% and 100%, respectively. In addition, the inhibition of growth at 100 ppm in the data set on Physalospora baccae (100 ppm) was 100%; with Pyricalaria oryzae, 100%; with Phytophthora capsisi (100 ppm) it was 60%; in the data set on Rhizoctonia solani (100 ppm) it was 100%; in the data set on Alternaria mali (100 ppm), 100%; in the data set with Rhizopus sp. (100 ppm), 56%. Besides, the inhibition of growth at 100 ppm (in the data set on Botry tris cinerea (100 ppm); in the data set on Glomerella cingulata (100 ppm); in [1] (100 ppm)) was 100% in each case. Moreover, the “% controlled, Fu. mo.” value in the data set with Fusarium moniliforme (50 ppm) and in the data set with Fusarium moniliforme (100 ppm) was 100% each time.

Turning to `C=CC[Si](C)(Cn1cncn1)C[Si](CC=C)(c1ccc(F)cc1)c1ccc(F)cc1` (stereo not drawn) [6,6-bis(4-fluorophenyl)-4-methyl-4,6-disila-4-(1H-1,2,4-triazol-1-ylmethyl)-1,8-nonadiene], the inhibition of growth at 50 ppm with Physalospora baccae (50 ppm) was 60%; in the data set with Pyricalaria oryzae, 85%; in the data set on Phytophthora capsisi (50 ppm) it was 21%; in the data set with Rhizoctonia solani (50 ppm), 75%; in the data set with Alternaria mali (50 ppm), 78%; with Rhizopus sp. (50 ppm), 100%. For the same compound, the inhibition of growth at 50 ppm in the data set with Botry tris cinerea (50 ppm) stood at 86%; in the data set with Glomerella cingulata (50 ppm), 100%; in data set [1] (50 ppm) it was 100%. Also, the inhibition of growth at 100 ppm with Physalospora baccae (100 ppm) stood at 80%; in the data set with Pyricalaria oryzae, 100%; in the data set with Phytophthora capsisi (100 ppm) it was 100%; in the data set on Rhizoctonia solani (100 ppm) it was 87%; in the data set on Alternaria mali (100 ppm), 100%; in the data set with Rhizopus sp. (100 ppm), 100%. The inhibition of growth at 100 ppm (with Botry tris cinerea (100 ppm); with Glomerella cingulata (100 ppm); in data set [1] (100 ppm)) was 100% in each case. For the same compound, the “% controlled, Fu. mo.” value in the data set with Fusarium moniliforme (50 ppm) and in the data set with Fusarium moniliforme (100 ppm) was 100% throughout.

`C=CC[Si](C)(Cn1cncn1)C[Si](CC=C)(c1ccccc1)c1ccccc1` (stereo not drawn) [6,6-diphenyl-4-methyl-4,6-disila-4-(1H-1,2,4-triazol-1-ylmethyl)-1,8-nonadiene]: the inhibition of growth at 50 ppm in the data set with Physalospora baccae (50 ppm) is 84%; in the data set with Pyricalaria oryzae, 100%; with Phytophthora capsisi (50 ppm) it was 33%; in the data set on Rhizoctonia solani (50 ppm) it was 80%; in the data set with Alternaria mali (50 ppm) it was 72%; with Rhizopus sp. (50 ppm), 50%. For the same compound, the inhibition of growth at 50 ppm in the data set on Botry tris cinerea (50 ppm) worked out at 77%; in the data set on Glomerella cingulata (50 ppm) it was 89%; in data set [1] (50 ppm), 80%. Further, the inhibition of growth at 100 ppm in the data set with Physalospora baccae (100 ppm) was 100%; with Pyricalaria oryzae, 100%; with Phytophthora capsisi (100 ppm), 40%; in the data set with Rhizoctonia solani (100 ppm), 100%; with Alternaria mali (100 ppm), 89%; in the data set on Rhizopus sp. (100 ppm) it was 100%. The inhibition of growth at 100 ppm (in the data set with Botry tris cinerea (100 ppm); in the data set with Glomerella cingulata (100 ppm); in [1] (100 ppm)) was 100% throughout. Also, the results for the “% controlled, Fu. mo.” value in the data set on Fusarium moniliforme (50 ppm) and in the data set with Fusarium moniliforme (100 ppm) were 60% and 100%, respectively.

As for `C=CC[Si](C[Si](CC)(Cn1cncn1)c1ccc(OCC)cc1)(c1ccc(F)cc1)c1ccc(F)cc1` (stereo not drawn) [6-(4-ethoxyphenyl)-4,4-bis(4-fluorophenyl)-6-ethyl-4,6-disila-7-(1H-1,2,4-triazol-1-yl)-1-heptane], the “% controlled, Phy ba.” value in the data set with Physalospora baccae (50 ppm) is reported as 60%; in the data set on Physalospora baccae (100 ppm), 75%. Moreover, the figures for the “% controlled, Py. or.” value in the data set on Pyricalaria oryzae (50 ppm) and in the data set with Pyricalaria oryzae (100 ppm) were 70% and 75%, respectively. The “% controlled, Fu. mo.” value in the data set on Fusarium moniliforme (50 ppm) and in the data set on Fusarium moniliforme (100 ppm) was 90% each time. For the same compound, the “% controlled, Phy ca.” value came out at 80% with Phytophthora capsisi (50 ppm) and 90% with Phytophthora capsisi (100 ppm). For the same compound, the “% controlled, Rhy. so.” value in the data set on Rhizoctonia solani (50 ppm) and in the data set on Rhizoctonia solani (100 ppm) was 100% each time. Besides, the “% controlled, Al.” value with Alternaria mali (50 ppm) and with Alternaria mali (100 ppm) was 100% throughout. Moreover, the “% controlled, Rhi. sp.” value in the data set with Rhizopus sp. (50 ppm) was 80%; with Rhizopus sp. (100 ppm) it was 90%. Moreover, the “% controlled, Bo ci.” value in the data set on Botry tris cinerea (50 ppm) and in the data set with Botry tris cinerea (100 ppm) was 60% throughout. The “% controlled, Glo.” value in the data set with Glomerella cingulata (50 ppm) and in the data set on Glomerella cingulata (100 ppm) was 80% throughout. The “% controlled, Bo.do (Ma.)” value in data set [1] (50 ppm) stood at 65%; in data set [1] (100 ppm), 69%.

As for `C=CC[Si](C[Si](C)(Cn1cncn1)c1ccc(OCC)cc1)(c1ccccc1)c1ccc(-c2ccccc2)cc1` (stereo not drawn) [6-(4-ethoxyphenyl)-6-methyl-4-phenyl-4-(4-phenylphenyl-4,6-disila-7-(1H-1,2,4-triazol-1-yl)-1-heptane], the inhibition of growth at 50 ppm in the data set on Physalospora baccae (50 ppm) worked out at 100%; in the data set with Pyricalaria oryzae it was 75%; with Phytophthora capsisi (50 ppm) it was 60%; with Rhizoctonia solani (50 ppm) it was 100%; in the data set with Alternaria mali (50 ppm), 100%; with Rhizopus sp. (50 ppm), 75%. Besides, the inhibition of growth at 50 ppm is 80% in the data set with Botry tris cinerea (50 ppm), 80% in the data set on Glomerella cingulata (50 ppm) and 100% in data set [1] (50 ppm). In addition, the inhibition of growth at 100 ppm with Physalospora baccae (100 ppm) amounted to 100%; in the data set with Pyricalaria oryzae it was 85%; with Phytophthora capsisi (100 ppm) it was 70%; in the data set with Rhizoctonia solani (100 ppm), 100%; in the data set with Alternaria mali (100 ppm) it was 100%; with Rhizopus sp. (100 ppm), 75%. Further, the inhibition of growth at 100 ppm with Botry tris cinerea (100 ppm) was 85%; in the data set with Glomerella cingulata (100 ppm), 90%; in data set [1] (100 ppm), 100%. Moreover, the “% controlled, Fu. mo.” value with Fusarium moniliforme (50 ppm) and in the data set with Fusarium moniliforme (100 ppm) was 80% throughout.
